Peptide text beside a SMILES is read from it.
Assays:
S. aureus ATCC 43300 = format: cell-based, Staphylococcus aureus; conditions: microtiter, serial 2-fold dilutions, 37°C, 16∼20 h, triplicate; – = no activity
Procedure: (§1) The minimal inhibitory concentration (MIC) was evaluated by a microtiter plate assay ([Wiegand et al., 2008]). Serial 2-fold dilutions of test peptides were placed into a 96-well plate containing identical bacterial inoculum and incubated at 37°C for 16∼20 h. Vancomycin was used as antibiotic control. The MIC value was defined as the lowest peptide concentration where no visible growth occurred. All tests were made in triplicate.

[1] = tested on: Staphylococcus aureus CVCC 546; assay: microbe, parasite or virus in culture; format: cell-based; conditions: Table 1; – = no activity
Procedure: as §1

CC[C@H](C)[C@@H]1NC(=O)[C@@H]2CSSC[C@@H](C(=O)N[C@@H](CCCNC(=N)N)C(=O)N[C@@H](CCCCN)C(=O)O)NC(=O)[C@H](CC(N)=O)NC(=O)[C@@H]3CSSC[C@H](NC(=O)[C@H](C)NC(=O)[C@H](C)NC(=O)[C@H](Cc4c[nH]cn4)NC(=O)CNC(=O)[C@H](C(C)C)NC(=O)[C@H](CCCCN)NC(=O)[C@H](Cc4ccccc4)NC(=O)[C@@H]4CCCN4C(=O)[C@H]([C@@H](C)O)NC(=O)[C@H](CC(C)C)NC(=O)[C@H](CC(C)C)NC(=O)[C@H](CC(=O)O)NC(=O)[C@@H](NC(=O)[C@@H](NC(=O)[C@H](C)N)[C@@H](C)O)CSSC[C@H](NC(=O)[C@H](Cc4c[nH]c5ccccc45)NC(=O)CNC(=O)CNC(=O)[C@H](CCCNC(=N)N)NC(=O)[C@H](CCCCN)NC(=O)CNC(=O)[C@H](CCCNC(=N)N)NC(=O)[C@H](C)NC1=O)C(=O)N[C@@H](CC(=O)O)C(=O)N[C@@H](CCCCN)C(=O)N[C@@H](CCCNC(=N)N)C(=O)N[C@@H](C)C(=O)N[C@@H](C(C)C)C(=O)N3)C(=O)N[C@@H](C)C(=O)N[C@@H](C)C(=O)N[C@@H](Cc1c[nH]cn1)C(=O)N2 [ID6] (HELM PEPTIDE1{A.T.C.D.L.L.T.P.F.K.V.G.H.A.A.C.A.A.H.C.I.A.R.G.K.R.G.G.W.C.D.K.R.A.V.C.N.C.R.K}$PEPTIDE1,PEPTIDE1,3:R3-30:R3|PEPTIDE1,PEPTIDE1,16:R3-36:R3|PEPTIDE1,PEPTIDE1,20:R3-38:R3$$$V2.0; N-terminus and C-terminus assumed; bridges inferred)
A1 (MIC against S. aureus ATCC 43300) (S. aureus ATCC 43300): 8 µg/mL
MIC [1]: 16

CC[C@H](C)[C@@H]1NC(=O)[C@@H]2CSSC[C@@H](C(=O)N[C@@H](CCCNC(=N)N)C(=O)N[C@@H](CCCCN)C(=O)O)NC(=O)[C@H](CC(N)=O)NC(=O)[C@@H]3CSSC[C@H](NC(=O)[C@H](C)NC(=O)[C@H](C)NC(=O)[C@H](Cc4c[nH]cn4)NC(=O)CNC(=O)[C@H](C(C)C)NC(=O)CNC(=O)[C@H](Cc4ccccc4)NC(=O)[C@@H]4CCCN4C(=O)[C@H](CO)NC(=O)[C@H](CC(C)C)NC(=O)[C@H](CC(C)C)NC(=O)[C@H](CC(=O)O)NC(=O)[C@@H](NC(=O)[C@@H](NC(=O)[C@H](C)N)[C@@H](C)O)CSSC[C@H](NC(=O)[C@H](Cc4c[nH]c5ccccc45)NC(=O)CNC(=O)CNC(=O)[C@H](CCCNC(=N)N)NC(=O)[C@H](CCCCN)NC(=O)CNC(=O)[C@H](CCCNC(=N)N)NC(=O)[C@H](C)NC1=O)C(=O)N[C@@H](CC(=O)O)C(=O)NCC(=O)N[C@@H](CCCNC(=N)N)C(=O)N[C@@H](C)C(=O)N[C@@H](C(C)C)C(=O)N3)C(=O)N[C@@H](C)C(=O)N[C@@H](C)C(=O)N[C@@H](Cc1c[nH]cn1)C(=O)N2 [ID16] (HELM PEPTIDE1{A.T.C.D.L.L.S.P.F.G.V.G.H.A.A.C.A.A.H.C.I.A.R.G.K.R.G.G.W.C.D.G.R.A.V.C.N.C.R.K}$PEPTIDE1,PEPTIDE1,3:R3-30:R3|PEPTIDE1,PEPTIDE1,16:R3-36:R3|PEPTIDE1,PEPTIDE1,20:R3-38:R3$$$V2.0; N-terminus and C-terminus assumed; bridges inferred)
A1 (MIC against S. aureus ATCC 43300) (S. aureus ATCC 43300): 8 µg/mL
MIC [1]: 16

CC[C@H](C)[C@@H]1NC(=O)[C@@H]2CSSC[C@@H](C(=O)N[C@@H](CCCNC(=N)N)C(=O)N[C@@H](CC(N)=O)C(=O)O)NC(=O)[C@H](CC(N)=O)NC(=O)[C@@H]3CSSC[C@H](NC(=O)[C@H](C)NC(=O)[C@H](C)NC(=O)[C@H](Cc4c[nH]cn4)NC(=O)CNC(=O)[C@H](C(C)C)NC(=O)CNC(=O)[C@H](Cc4ccccc4)NC(=O)[C@@H]4CCCN4C(=O)[C@H](CO)NC(=O)[C@H](CC(C)C)NC(=O)[C@H](CC(C)C)NC(=O)[C@H](CC(=O)O)NC(=O)[C@@H](NC(=O)[C@@H](NC(=O)[C@H](C)N)[C@@H](C)O)CSSC[C@H](NC(=O)[C@H](Cc4c[nH]c5ccccc45)NC(=O)CNC(=O)CNC(=O)[C@H](CCCNC(=N)N)NC(=O)[C@H](CCCCN)NC(=O)CNC(=O)[C@H](CCCNC(=N)N)NC(=O)[C@H](C)NC1=O)C(=O)N[C@@H](CC(=O)O)C(=O)N[C@@H](CCCCN)C(=O)N[C@@H](CCCNC(=N)N)C(=O)N[C@@H](C)C(=O)N[C@@H](C(C)C)C(=O)N3)C(=O)N[C@@H](C)C(=O)N[C@@H](C)C(=O)N[C@@H](Cc1c[nH]cn1)C(=O)N2 [ID17] (HELM PEPTIDE1{A.T.C.D.L.L.S.P.F.G.V.G.H.A.A.C.A.A.H.C.I.A.R.G.K.R.G.G.W.C.D.K.R.A.V.C.N.C.R.N}$PEPTIDE1,PEPTIDE1,3:R3-30:R3|PEPTIDE1,PEPTIDE1,16:R3-36:R3|PEPTIDE1,PEPTIDE1,20:R3-38:R3$$$V2.0; N-terminus and C-terminus assumed; bridges inferred)
A1 (MIC against S. aureus ATCC 43300) (S. aureus ATCC 43300): 16 µg/mL
MIC [1]: 64

CC[C@H](C)[C@@H]1NC(=O)[C@@H]2CSSC[C@@H](C(=O)N[C@@H](CCCNC(=N)N)C(=O)N[C@@H](CCCCN)C(=O)O)NC(=O)[C@H](CC(N)=O)NC(=O)[C@@H]3CSSC[C@H](NC(=O)[C@H](C)NC(=O)[C@H](C)NC(=O)[C@H](Cc4c[nH]cn4)NC(=O)CNC(=O)[C@H](C(C)C)NC(=O)[C@H](CCCCN)NC(=O)[C@H](Cc4ccccc4)NC(=O)[C@@H]4CCCN4C(=O)[C@H](CO)NC(=O)[C@H](CC(C)C)NC(=O)[C@H](CC(C)C)NC(=O)[C@H](CC(=O)O)NC(=O)[C@@H](NC(=O)[C@@H](NC(=O)[C@H](C)N)[C@@H](C)O)CSSC[C@H](NC(=O)[C@H](Cc4c[nH]c5ccccc45)NC(=O)CNC(=O)CNC(=O)[C@H](CCCNC(=N)N)NC(=O)[C@H](CCCCN)NC(=O)CNC(=O)[C@H](CCCNC(=N)N)NC(=O)[C@H](C)NC1=O)C(=O)N[C@@H](CC(=O)O)C(=O)N[C@@H](CCCCN)C(=O)N[C@@H](CCCNC(=N)N)C(=O)N[C@@H](C)C(=O)N[C@@H](C(C)C)C(=O)N3)C(=O)N[C@@H](C)C(=O)N[C@@H](CC(C)C)C(=O)N[C@@H](Cc1c[nH]cn1)C(=O)N2 [ID27] (HELM PEPTIDE1{A.T.C.D.L.L.S.P.F.K.V.G.H.A.A.C.A.L.H.C.I.A.R.G.K.R.G.G.W.C.D.K.R.A.V.C.N.C.R.K}$PEPTIDE1,PEPTIDE1,3:R3-30:R3|PEPTIDE1,PEPTIDE1,16:R3-36:R3|PEPTIDE1,PEPTIDE1,20:R3-38:R3$$$V2.0; N-terminus and C-terminus assumed; bridges inferred)
A1 (MIC against S. aureus ATCC 43300) (S. aureus ATCC 43300): 8 µg/mL
MIC [1]: 8

From PMC7291858, “An Enhanced Variant Designed From DLP4 Cationic Peptide Against Staphylococcus aureus CVCC 546” (Frontiers in Microbiology, 2020)
